# In article PMC12526278, “Origanum vulgare subsp. virens (Hoffmanns. & Link) Bonnier & Layens Essential Oils: Chemotypes and Bioactivity as Antifungal, Antifeeding and Enzyme Inhibitors” (Plants, 2025):
# Legend:
# [1] = target: T1, AChE from Electrophorus electricus (Electrophorus electricus, UniProt O42275); assay: biochemical
# [2] = test system: T2, α-glucosidase (α-GLU) extracted from Saccharomyces cerevisiae; assay: 4-nitrophenol release, absorbance […] nm; format: biochemical; details: 4-nitrophenyl alpha-D-glucopyranoside (5 mM solution), 0.1 M phosphate pH 7.0, 37 °C, 20 min; unreliable (far above the tested range, extrapolated)
# T2 construct: gene MAL12; commercial yeast enzyme (Sigma-Aldrich)
# [3] = target: T3, β-glucosidase (β-GLU) from almonds; assay: 4-nitrophenol release, absorbance […] nm; format: biochemical, Prunus dulcis; details: 4-nitrophenyl beta-D-glucopyranoside, 0.1 M phosphate pH 7.0, 37 °C, 20 min
# T3 construct: gene beta-glucosidase; commercial enzyme from almonds (Sigma-Aldrich)
# [4] = target: T1, AChE from Electrophorus electricus; assay: Ellman assay, absorbance […] nm; format: biochemical; details: acetylthiocholine iodide substrate with DTNB, phosphate buffer; no significant inhibition
# [5] = target: T2, α-glucosidase (α-GLU) extracted from Saccharomyces cerevisiae; assay: 4-nitrophenol release, absorbance […] nm; format: biochemical; details: 4-nitrophenyl alpha-D-glucopyranoside (5 mM solution), 0.1 M phosphate pH 7.0, 37 °C, 20 min
# [6] = target: T1, AChE from Electrophorus electricus; assay: Ellman assay, absorbance […] nm; format: biochemical; details: acetylthiocholine iodide substrate with DTNB, phosphate buffer, 5 min preincubation; unreliable (above the tested range, extrapolated)
# T1 sequence (O42275 24-633): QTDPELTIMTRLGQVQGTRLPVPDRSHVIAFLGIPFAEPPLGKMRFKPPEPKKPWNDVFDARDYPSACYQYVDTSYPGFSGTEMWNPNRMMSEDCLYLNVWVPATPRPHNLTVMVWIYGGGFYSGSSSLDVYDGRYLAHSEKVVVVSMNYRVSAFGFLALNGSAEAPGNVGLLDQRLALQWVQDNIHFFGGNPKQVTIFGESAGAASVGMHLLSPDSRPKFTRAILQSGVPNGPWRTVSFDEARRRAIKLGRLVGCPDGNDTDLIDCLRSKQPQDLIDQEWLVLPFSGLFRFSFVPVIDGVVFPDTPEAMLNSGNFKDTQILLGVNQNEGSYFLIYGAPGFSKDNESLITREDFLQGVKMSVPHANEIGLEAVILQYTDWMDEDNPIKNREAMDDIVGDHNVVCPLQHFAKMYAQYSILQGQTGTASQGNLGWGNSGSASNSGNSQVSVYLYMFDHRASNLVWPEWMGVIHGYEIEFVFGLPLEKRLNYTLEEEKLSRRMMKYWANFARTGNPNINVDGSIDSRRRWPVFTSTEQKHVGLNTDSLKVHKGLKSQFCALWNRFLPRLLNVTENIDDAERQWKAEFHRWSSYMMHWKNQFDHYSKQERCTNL
structure (smiles),measurement,setting,value
Cc1ccc(C(C)C)cc1O [Carvacrol],IC50,[1],180 µM
same,α-GLU / IC50,[2],109340 ± 23120 µg/mL
OC[C@H]1NC[C@H](O)[C@@H](O)[C@@H]1O [1-DNJ],β-GLU / IC50,[3],36 ± 1 µg/mL
CC1=CCC(C(C)C)=CC1 [γ-terpinene],"Ellman assay, absorbance 405 nm",[4],did not show significant AChE inhibition under our experimental conditions
Cc1ccc(C(C)C)c(O)c1 [Thymol],α-GLU / IC50,[5],304 ± 25 µg/mL
same,IC50,[6],2531 ± 515 µg/mL
